{"source": "patent EP3581172B1", "about": "“A PHARMACEUTICAL COMPOSITION WITH ENHANCED BIOAVAILABILITY CONTAINING A MEDICAL HERBAL EXTRACT” (TFLL Pharmaceutical Food Supplements and Cosmetic Products …, priority 2018, dated 2019)", "origin": "cited, not measured here", "key": {"breast cancer": {"tested_on": "breast cancer", "settings": "topical curcumin ointment; 7 breast cancer patients"}, "[1]": {"tested_on": "esophageal carcinogenesis", "settings": "rats, by diet (500 ppm)"}, "adenoma": {"tested_on": "adenoma", "settings": "rats"}, "[2]": {"tested_on": "colon cancer stimulated by 1,2-dimethylhydrazine (DMH)"}}, "note": "Where two headings read alike, the source gives them in different places.", "data": [{"smiles": "COc1cc(/C=C/C(=O)CC(=O)/C=C/c2ccc(O)c(OC)c2)ccc1O", "note": "[curcumin, (1E,6E)-1,7-bis (4-hydroxy-3-methoxyphenyl)-1,6-heptadiene-3,5-dione]", "values": [{"measurement": "positive responses (significant reduction in lesion size, pain, itching and leaks), share of patients", "setting": "breast cancer", "result": 71, "unit": "%"}, {"measurement": "esophageal carcinogenesis inhibited", "setting": "[1]; maintenance dose", "result": 33, "unit": "%"}, {"measurement": "esophageal carcinogenesis inhibited", "setting": "[1]; onset dose", "result": 27, "unit": "%"}, {"measurement": "decrease in adenoma", "setting": "adenoma; by diet 0.2% for 15 weeks", "result": 39, "unit": "%"}, {"measurement": "decrease in adenoma", "setting": "adenoma; by diet 0.5% for 15 weeks", "result": 40, "unit": "%"}, {"measurement": "water solubility", "result": "almost negligible"}]}, {"smiles": "COc1cc(CCC(=O)CC(=O)CCc2ccc(O)c(OC)c2)ccc1O", "note": "[THC, tetrahydrokurkuminin]", "values": [{"measurement": "effect on upper and lower half sections of colon crypts", "setting": "[2]", "result": "significant decrease"}]}, {"smiles": "COc1ccc(/C=C/C(=O)CC(=O)/C=C/c2ccc(OC)c(OC)c2)cc1OC", "note": "[dimethoxycurcumin]", "values": [{"measurement": "reducing proliferation and stimulating apoptosis, compared to curcumin", "setting": "HCT116 cells", "result": "more effective"}]}]}
